Experimental data: ChEMBL document CHEMBL5291721, “A preclinical secondary pharmacology resource illuminates target-adverse drug reaction associations of marketed drugs” (Nat Commun, 2023)

What was measured:
[1] = target: Beta-2 adrenergic receptor (Homo sapiens, UniProt P07550); format: functional, cell-based
[2] = target: Voltage-dependent L-type calcium channel subunit alpha-1C (Rattus norvegicus, UniProt P22002); format: functional
Endothelin-1 receptor = target: T1, Endothelin-1 receptor (Homo sapiens, UniProt P25101)
T1 sequence (P25101 whole entry): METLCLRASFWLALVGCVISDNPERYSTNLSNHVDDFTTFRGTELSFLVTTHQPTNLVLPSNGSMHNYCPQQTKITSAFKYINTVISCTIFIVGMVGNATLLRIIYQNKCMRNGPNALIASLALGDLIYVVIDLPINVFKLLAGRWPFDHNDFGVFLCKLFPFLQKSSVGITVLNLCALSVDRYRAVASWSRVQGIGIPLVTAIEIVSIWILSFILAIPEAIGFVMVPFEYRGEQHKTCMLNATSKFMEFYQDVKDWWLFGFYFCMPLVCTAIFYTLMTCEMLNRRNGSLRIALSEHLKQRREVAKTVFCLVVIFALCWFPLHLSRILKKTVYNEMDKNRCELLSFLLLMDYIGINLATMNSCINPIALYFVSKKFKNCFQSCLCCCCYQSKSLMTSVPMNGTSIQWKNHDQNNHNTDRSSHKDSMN

Melanocortin receptor 4 = Melanocortin receptor 4 (Homo sapiens, UniProt P32245)
Chain of Melanocortin receptor 4 (P32245 whole entry): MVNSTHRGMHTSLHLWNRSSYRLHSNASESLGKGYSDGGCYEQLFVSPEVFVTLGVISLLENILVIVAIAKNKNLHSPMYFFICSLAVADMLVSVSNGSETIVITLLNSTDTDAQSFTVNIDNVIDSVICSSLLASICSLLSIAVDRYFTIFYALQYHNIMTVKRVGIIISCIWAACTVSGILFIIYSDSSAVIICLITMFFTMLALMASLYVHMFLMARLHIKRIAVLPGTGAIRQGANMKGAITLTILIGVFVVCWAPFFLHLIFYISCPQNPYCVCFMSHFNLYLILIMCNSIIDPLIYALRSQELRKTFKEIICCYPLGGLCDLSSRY

[3] = target: T2, Neuropeptide Y receptor type 1 (Homo sapiens, UniProt P25929)
T2 sequence (P25929 whole entry): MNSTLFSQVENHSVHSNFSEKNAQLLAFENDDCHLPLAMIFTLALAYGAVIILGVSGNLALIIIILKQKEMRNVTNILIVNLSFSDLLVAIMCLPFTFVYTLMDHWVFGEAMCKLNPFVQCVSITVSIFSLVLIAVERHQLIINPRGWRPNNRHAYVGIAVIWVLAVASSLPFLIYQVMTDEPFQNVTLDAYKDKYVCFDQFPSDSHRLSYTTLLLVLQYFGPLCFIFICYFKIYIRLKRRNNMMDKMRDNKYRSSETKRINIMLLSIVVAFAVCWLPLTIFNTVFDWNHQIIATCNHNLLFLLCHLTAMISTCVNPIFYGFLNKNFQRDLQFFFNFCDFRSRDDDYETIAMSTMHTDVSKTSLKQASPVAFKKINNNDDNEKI

[4] = target: Kappa-type opioid receptor (Homo sapiens, UniProt P41145)
Chain of Kappa-type opioid receptor (P41145 whole entry): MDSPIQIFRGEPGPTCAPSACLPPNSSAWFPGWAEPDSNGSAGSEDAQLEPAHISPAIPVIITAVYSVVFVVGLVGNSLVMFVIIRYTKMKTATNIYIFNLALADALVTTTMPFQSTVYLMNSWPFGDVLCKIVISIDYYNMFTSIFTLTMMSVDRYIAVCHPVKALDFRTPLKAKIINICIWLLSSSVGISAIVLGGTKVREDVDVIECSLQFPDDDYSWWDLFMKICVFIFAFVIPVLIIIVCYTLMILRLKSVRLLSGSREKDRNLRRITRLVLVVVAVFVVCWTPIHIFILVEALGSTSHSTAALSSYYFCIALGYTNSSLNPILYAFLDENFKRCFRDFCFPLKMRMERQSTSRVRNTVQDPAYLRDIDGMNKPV

[5] = target: T3, Muscarinic acetylcholine receptor M1 (Homo sapiens, UniProt P11229); format: functional
T3 sequence (P11229 whole entry): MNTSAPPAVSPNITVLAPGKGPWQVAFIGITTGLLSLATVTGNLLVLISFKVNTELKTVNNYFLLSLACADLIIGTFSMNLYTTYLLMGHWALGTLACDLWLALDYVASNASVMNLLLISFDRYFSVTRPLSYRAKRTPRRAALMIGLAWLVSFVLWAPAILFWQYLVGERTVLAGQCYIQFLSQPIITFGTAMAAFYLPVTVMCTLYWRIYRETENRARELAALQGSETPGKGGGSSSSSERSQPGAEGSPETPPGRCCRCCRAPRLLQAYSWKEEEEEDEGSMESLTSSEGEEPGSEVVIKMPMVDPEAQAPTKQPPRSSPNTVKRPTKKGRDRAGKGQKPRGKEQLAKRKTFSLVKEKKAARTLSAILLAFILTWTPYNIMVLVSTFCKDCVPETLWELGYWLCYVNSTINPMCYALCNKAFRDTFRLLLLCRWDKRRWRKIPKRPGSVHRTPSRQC

Acetylcholinesterase = Acetylcholinesterase (Homo sapiens, UniProt P22303); format: functional
Chain of Acetylcholinesterase (P22303 whole entry): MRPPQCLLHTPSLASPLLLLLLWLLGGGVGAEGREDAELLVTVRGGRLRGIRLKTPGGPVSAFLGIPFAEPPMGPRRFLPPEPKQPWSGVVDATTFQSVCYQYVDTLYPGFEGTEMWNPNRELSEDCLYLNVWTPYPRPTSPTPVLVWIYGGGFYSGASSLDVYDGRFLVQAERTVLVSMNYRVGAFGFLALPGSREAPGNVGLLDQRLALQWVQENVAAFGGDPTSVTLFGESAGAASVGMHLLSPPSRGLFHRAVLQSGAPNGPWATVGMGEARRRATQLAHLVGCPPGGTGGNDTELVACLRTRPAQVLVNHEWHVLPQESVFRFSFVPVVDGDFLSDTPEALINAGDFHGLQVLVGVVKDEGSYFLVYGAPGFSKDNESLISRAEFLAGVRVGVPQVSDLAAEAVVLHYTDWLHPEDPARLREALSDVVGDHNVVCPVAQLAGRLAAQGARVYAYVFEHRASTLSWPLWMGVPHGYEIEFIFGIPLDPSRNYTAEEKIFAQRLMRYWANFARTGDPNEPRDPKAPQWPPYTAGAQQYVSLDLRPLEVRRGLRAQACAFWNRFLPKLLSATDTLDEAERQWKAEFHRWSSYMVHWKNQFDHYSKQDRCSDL

[6] = target: T4, Alpha-2A adrenergic receptor (Homo sapiens, UniProt P08913)
T4 sequence (P08913 whole entry): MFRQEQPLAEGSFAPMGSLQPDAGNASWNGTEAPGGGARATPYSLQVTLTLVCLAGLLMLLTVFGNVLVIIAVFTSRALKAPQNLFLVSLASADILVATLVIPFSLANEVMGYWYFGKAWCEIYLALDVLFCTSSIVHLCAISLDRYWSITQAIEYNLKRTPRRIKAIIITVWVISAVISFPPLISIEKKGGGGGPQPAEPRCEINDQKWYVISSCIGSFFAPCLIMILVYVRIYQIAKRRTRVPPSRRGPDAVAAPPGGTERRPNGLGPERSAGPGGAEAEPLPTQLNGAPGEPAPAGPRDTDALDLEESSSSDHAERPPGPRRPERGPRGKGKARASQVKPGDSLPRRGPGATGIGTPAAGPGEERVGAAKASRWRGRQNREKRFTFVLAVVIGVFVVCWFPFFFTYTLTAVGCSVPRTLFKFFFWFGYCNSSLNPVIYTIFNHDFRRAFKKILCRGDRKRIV

[7] = target: T3, Muscarinic acetylcholine receptor M1; format: functional, cell-based
[8] = target: T3, Muscarinic acetylcholine receptor M1; format: functional, cell-based; remark: listed apart in the source
Estrogen receptor = target: T5, Estrogen receptor (Homo sapiens, UniProt P03372)
T5 sequence (P03372 whole entry): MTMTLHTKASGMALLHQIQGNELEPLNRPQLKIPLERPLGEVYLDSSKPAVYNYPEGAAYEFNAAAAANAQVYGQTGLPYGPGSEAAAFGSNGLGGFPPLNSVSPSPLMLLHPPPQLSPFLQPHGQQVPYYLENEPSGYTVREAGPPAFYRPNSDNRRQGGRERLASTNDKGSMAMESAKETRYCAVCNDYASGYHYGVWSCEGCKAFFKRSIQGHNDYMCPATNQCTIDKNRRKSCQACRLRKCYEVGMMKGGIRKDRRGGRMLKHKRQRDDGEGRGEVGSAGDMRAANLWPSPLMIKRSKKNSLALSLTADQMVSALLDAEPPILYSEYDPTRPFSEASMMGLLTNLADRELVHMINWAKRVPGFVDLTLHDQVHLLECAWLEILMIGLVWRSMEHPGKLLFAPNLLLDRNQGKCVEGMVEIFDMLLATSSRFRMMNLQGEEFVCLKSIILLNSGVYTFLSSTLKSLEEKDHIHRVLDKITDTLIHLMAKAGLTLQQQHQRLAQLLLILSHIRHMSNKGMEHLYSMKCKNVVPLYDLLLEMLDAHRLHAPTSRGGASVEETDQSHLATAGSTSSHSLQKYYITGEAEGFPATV

Prothrombin = Prothrombin (Homo sapiens, UniProt P00734); format: functional
[9] = target: cGMP-inhibited 3',5'-cyclic phosphodiesterase 3A (Homo sapiens, UniProt Q14432); format: functional
Chain of cGMP-inhibited 3',5'-cyclic phosphodiesterase 3A (Q14432 whole entry): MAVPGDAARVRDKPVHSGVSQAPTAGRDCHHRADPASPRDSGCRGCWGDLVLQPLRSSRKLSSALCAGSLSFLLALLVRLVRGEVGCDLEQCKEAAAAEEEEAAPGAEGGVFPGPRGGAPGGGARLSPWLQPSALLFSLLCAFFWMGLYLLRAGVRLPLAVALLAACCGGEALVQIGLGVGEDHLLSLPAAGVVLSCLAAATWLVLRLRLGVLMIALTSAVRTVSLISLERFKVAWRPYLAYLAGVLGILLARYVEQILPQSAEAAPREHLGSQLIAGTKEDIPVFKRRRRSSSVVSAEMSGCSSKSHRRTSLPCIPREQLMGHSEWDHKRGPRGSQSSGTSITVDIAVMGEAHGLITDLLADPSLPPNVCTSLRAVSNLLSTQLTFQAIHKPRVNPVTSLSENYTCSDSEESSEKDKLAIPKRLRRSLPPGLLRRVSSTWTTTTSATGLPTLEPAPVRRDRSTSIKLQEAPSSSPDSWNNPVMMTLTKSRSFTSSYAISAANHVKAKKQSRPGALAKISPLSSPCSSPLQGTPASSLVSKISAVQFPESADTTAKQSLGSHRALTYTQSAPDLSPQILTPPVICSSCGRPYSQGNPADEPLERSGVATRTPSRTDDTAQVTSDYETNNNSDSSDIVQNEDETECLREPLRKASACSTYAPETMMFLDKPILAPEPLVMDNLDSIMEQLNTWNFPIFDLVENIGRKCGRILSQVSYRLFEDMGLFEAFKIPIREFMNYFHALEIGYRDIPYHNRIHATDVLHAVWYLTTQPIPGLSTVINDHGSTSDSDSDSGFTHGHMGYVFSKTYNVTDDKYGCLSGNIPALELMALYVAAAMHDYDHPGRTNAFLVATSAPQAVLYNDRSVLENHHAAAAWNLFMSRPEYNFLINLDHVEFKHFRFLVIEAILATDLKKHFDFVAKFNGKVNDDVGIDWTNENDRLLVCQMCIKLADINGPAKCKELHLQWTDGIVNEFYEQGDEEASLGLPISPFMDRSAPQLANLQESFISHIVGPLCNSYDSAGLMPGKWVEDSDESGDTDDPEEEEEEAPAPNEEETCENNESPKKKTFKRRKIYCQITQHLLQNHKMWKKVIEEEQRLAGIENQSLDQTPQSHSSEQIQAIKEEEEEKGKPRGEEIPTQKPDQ

[10] = target: Sodium-dependent serotonin transporter (Homo sapiens, UniProt P31645)
Note: assay procedure not described here.

Chain of Voltage-dependent L-type calcium channel subunit alpha-1C (P22002 whole entry): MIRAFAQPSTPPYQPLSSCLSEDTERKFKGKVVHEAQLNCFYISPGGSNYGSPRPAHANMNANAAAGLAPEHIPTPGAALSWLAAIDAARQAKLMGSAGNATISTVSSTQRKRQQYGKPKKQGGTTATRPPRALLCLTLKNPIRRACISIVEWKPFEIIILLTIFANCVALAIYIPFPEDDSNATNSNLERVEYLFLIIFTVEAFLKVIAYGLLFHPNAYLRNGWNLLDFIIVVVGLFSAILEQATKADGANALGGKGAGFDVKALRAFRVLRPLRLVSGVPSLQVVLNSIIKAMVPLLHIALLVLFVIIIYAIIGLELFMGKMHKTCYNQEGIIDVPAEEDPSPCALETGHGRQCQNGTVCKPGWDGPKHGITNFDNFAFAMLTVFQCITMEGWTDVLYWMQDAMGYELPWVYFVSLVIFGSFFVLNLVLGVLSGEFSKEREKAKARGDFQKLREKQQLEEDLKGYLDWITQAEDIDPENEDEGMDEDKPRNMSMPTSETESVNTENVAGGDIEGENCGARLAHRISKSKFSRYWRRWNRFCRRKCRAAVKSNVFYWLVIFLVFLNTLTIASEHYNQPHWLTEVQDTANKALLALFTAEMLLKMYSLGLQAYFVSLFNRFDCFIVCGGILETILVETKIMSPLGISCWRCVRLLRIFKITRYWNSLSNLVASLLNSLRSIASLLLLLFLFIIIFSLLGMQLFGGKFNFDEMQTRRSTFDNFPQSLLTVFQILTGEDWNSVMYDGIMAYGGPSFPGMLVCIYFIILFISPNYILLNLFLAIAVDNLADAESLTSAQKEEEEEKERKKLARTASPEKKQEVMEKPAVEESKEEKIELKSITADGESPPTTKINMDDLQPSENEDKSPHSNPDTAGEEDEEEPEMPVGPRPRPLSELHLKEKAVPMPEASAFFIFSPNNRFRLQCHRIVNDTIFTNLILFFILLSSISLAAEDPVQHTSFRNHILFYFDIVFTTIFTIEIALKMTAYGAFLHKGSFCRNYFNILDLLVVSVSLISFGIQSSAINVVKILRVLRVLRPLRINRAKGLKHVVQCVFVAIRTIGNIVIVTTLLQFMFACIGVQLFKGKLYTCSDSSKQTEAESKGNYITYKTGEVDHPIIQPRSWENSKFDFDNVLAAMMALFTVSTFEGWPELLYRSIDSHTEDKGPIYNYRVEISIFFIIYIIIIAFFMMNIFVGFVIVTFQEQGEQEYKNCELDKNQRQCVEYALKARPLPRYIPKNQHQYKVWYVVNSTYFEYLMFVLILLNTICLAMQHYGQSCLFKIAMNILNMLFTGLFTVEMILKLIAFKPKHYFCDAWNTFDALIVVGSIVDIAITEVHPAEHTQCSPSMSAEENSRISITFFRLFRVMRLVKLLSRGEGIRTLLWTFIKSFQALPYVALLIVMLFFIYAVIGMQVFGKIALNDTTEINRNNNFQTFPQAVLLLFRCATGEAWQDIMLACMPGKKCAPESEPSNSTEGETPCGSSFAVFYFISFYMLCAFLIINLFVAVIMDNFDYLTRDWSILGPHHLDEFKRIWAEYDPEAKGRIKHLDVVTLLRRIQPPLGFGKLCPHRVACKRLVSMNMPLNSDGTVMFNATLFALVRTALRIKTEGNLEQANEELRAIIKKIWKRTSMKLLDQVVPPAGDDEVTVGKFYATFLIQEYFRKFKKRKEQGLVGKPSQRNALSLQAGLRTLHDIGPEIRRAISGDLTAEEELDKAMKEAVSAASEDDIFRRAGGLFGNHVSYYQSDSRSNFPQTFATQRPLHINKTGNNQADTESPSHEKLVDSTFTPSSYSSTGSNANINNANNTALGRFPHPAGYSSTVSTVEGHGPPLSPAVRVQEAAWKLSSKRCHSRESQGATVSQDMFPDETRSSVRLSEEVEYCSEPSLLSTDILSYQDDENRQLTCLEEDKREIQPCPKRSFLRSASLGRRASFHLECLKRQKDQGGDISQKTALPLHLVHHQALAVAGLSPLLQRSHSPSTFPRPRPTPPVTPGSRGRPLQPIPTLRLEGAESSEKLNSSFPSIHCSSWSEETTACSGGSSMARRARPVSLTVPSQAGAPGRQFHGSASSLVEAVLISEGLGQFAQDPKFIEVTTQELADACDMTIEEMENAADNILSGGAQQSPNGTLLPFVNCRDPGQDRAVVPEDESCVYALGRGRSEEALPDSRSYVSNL
Chain of Beta-2 adrenergic receptor (P07550 whole entry): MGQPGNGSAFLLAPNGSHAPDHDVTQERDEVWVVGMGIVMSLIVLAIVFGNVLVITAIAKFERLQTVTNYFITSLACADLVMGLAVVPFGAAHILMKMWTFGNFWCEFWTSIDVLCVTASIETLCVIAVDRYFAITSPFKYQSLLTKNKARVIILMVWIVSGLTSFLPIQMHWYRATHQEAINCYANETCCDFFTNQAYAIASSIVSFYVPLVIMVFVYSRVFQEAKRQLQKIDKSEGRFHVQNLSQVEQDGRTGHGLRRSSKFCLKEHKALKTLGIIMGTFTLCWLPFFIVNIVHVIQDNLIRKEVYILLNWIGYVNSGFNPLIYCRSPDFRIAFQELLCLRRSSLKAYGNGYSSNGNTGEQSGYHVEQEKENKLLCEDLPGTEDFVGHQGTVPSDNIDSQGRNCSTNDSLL

SMILES	AC50 [1] [µM]	AC50 [2] [µM]	AC50 (Endothelin-1 receptor) [µM]	AC50 (Melanocortin receptor 4) [µM]	AC50 [3] [µM]	AC50 [4] [µM]	AC50 [5] [µM]	AC50 (Acetylcholinesterase) [µM]	AC50 [6] [µM]	AC50 [7] [µM]	AC50 [8] [µM]	AC50 (Estrogen receptor) [µM]	AC50 (Prothrombin) [µM]	AC50 [9] [µM]	AC50 [10] [µM]
CCOC(=O)[C@H](CCc1ccccc1)N[C@@H](C)C(=O)N1[C@H](C(=O)O)C[C@@H]2CCC[C@@H]21	> 30	> 10	> 30	> 30	> 30	> 10	–	–	–	–	–	–	–	–	–
C[C@@H](O)[C@H]1C(=O)N2C(C(=O)O)=C(S[C@@H]3CN[C@H](C(=O)N(C)C)C3)[C@H](C)[C@H]12 [MEROPENEM]	> 300	> 10	> 300	> 10	> 10	> 10	–	–	–	–	–	–	–	–	–
C1CCC(C(CC2CCCCN2)C2CCCCC2)CC1 (stereo unspecified) [PERHEXILINE]	> 30	–	> 30	–	–	–	–	–	–	–	–	–	–	–	–
C[C@H]1CNCCc2ccc(Cl)cc21 [LORCASERIN]	> 30	–	> 30	–	–	–	> 30	–	–	–	–	–	–	–	–
Cc1nc([N+](=O)[O-])cn1-c1ccc([N+](=O)[O-])cc1 [NITREFAZOLE]	> 30	–	> 30	–	> 30	> 30	> 30	–	–	–	–	–	–	–	–
c1ccc([C@H]2CN3CCSC3=N2)cc1 [LEVAMISOLE]	> 30	> 30	> 30	–	–	> 30	–	–	–	–	–	–	–	–	–
CC[C@H]1[C@@H](O)[C@@H]2[C@H](CC[C@]3(C)[C@@H]([C@H](C)CCC(=O)O)CC[C@@H]23)[C@@]2(C)CC[C@@H](O)C[C@@H]12 [OBETICHOLIC ACID]	–	> 30	> 30	–	> 30	> 30	> 30	> 30	> 30	> 30	> 30	> 30	> 30	> 30	> 30
c1cnc(N2CCN(Cc3ccc4c(c3)OCO4)CC2)nc1 [PIRIBEDIL]	> 30	–	> 30	–	–	–	> 30	–	–	–	–	–	–	–	–
N[C@@H]1[C@H]2CN(c3nc4c(cc3F)c(=O)c(C(=O)O)cn4-c3ccc(F)cc3F)C[C@@H]12 [TROVAFLOXACIN]	> 30	–	> 30	–	–	–	–	–	–	–	–	–	–	–	–
CN(C)CCC=C1c2ccccc2C(C)(C)c2ccccc21	> 30	–	> 30	–	–	–	0.129	–	–	–	–	–	–	–	–
CC(=O)Nc1ccc(O)cc1 [ACETAMINOPHEN]	> 30	–	> 30	–	–	–	–	> 30	> 30	–	–	–	> 30	> 30	–
CNC(=O)c1ccccc1Sc1ccc2c(/C=C/c3ccccn3)n[nH]c2c1 [AXITINIB]	> 30	–	> 30	–	–	–	> 30	–	–	–	–	–	–	–	–
CNC1Cc2ccccc2N(C)c2ccccc21 (stereo unspecified) [METAPRAMINE]	> 30	–	> 30	–	–	–	> 30	–	–	–	–	–	–	–	–
Nc1nc(NC2CC2)c2ncn([C@H]3C=C[C@@H](CO)C3)c2n1 [ABACAVIR]	> 30	–	> 30	–	> 30	> 30	> 30	–	–	–	–	–	–	–	–
Cc1cc(C#N)cc(C)c1Oc1nc(Nc2ccc(C#N)cc2)nc(N)c1Br [ETRAVIRINE]	–	–	–	–	–	–	–	> 30	20	> 10	2.71	6.28	> 30	> 30	> 30
Oc1c(Cl)cc(Cl)c2cccnc12 [CHLOROXINE]	–	–	–	–	–	–	–	> 30	> 30	> 30	> 30	> 30	> 30	> 30	> 30
CC[N+]1(C)[C@@H]2CC(OC(=O)[C@H](CO)c3ccccc3)C[C@H]1[C@@H]1O[C@@H]12 (stereo partly specified) [OXITROPIUM]	–	–	–	–	–	–	–	> 30	> 30	> 30	0.003	> 30	> 30	> 30	> 30
N[C@@H](C(=O)N[C@@H]1C(=O)N2C(C(=O)O)=C(Cl)CC[C@H]12)c1ccccc1 [LORACARBEF ANHYDROUS]	–	–	–	–	–	–	–	> 30	> 30	> 30	> 30	> 30	> 30	> 30	> 30
